# Results published in publication PMC4575030 (PLoS ONE, 2015).
# What was measured:
# [1] = Terminal plasma and brain concentrations after behavioral testing; assay type: in vivo, rat
# [2] = tested on: naïve rats; assay: Open field activity (basic movement); assay type: in vivo, rat; details: formalin-naïve rats
# Description: Basic movement was measured using the Photobeam Activity System Open Field (San Diego Instruments, San Diego, CA) equipped with 48 infrared photocell emitters and detectors. Photobeams used to measure vertical movement were positioned 14 cm above the test chamber floor. Each testing chamber was made of Plexiglas (41 x 41 x 36 cm) and was devoid of any bedding. At the beginning of the test session, each animal was placed in a separate testing chamber and the room lights were turned off. Basic movement was measured for 30 minutes.
# [3] = tested on: rat CFA model of pain; assay: CFA-induced thermal hyperalgesia; assay type: in vivo; details: 120 min after dosing, 24 h after CFA
# Description: CFA-induced thermal hyperalgesia was measured using the Thermal Plantar Analgesia Instrument (Ugo Basile, Italy). Intensity of the radiant heat stimulus was adjusted to achieve a withdrawal latency of approximately 13 s in naïve animals. On test day one, animals were placed on the apparatus in their individual testing chambers with an absorbent towel at the bottom and allowed to habituate for at least 30 minutes. The towel was then removed and animals were allowed to acclimate for at least 15 minutes more. After habituation, animals were placed back in their home cages until the following day. On test day two, animals were placed back in the testing chambers until calm (typically 20 minutes). The thermal device was positioned on the center of the left hind paw and the test was started. The time for the animal to withdraw its paw from the thermal stimulus was recorded. A cut-off of 30 seconds was used to prevent tissue damage. Few trials went past 20 seconds and none past 25 seconds. This procedure was repeated for three trials per animal, each separated by at least 5 min, and trials were averaged to determine baseline withdrawal latencies. After determining baseline measures, each animal received an injection of 50 μl CFA (1:1 emulsion with PBS, Sigma, St. Louis, MO) into the plantar side of the left hind paw with a 26 gauge needle. Animals were then placed back in their home cages until the following day. Approximately 24 h after the CFA injection, withdrawal latencies to heat were determined as described above. Animals were then randomized based on their Post-CFA baseline score and treated with the test compound or vehicle. […] The experimenter was blinded to drug treatment during this assay. Percent return to baseline latency was used as the endpoint of the assay.
# [4] = tested on: C-fiber nociceptors; assay: In vivo teased-fiber recording from tibial nerve after CFA, C-fibers; design: species or system rat; details: for Heat response threshold of C-fiber nociceptors: n = 9
# Description: (§1) A total of 55 adult, male, Sprague–Dawley rats (Harlan, Indianapolis, IN) weighing 300–350 g were used for electrophysiology. To ensure that electrophysiology studies were performed on rats with mechanical hyperalgesia, behavioral measures of mechanical hyperalgesia were obtained before and at 24 h after administration of CFA (and just prior to the electrophysiological studies). Mechanical hyperalgesia was assessed by determining the frequency of paw withdrawal evoked by mechanical stimulation using a 26 g Semmes-Weinstein von Frey monofilament (Stoelting, Wood Dale, IL). Rats were placed on an elevated wire mesh platform under individual plastic cages and acclimated to the testing environment for 30 minutes prior to testing. The monofilament was applied to the mid-plantar surface of the hindpaw ten times for 1–2 s each with an inter-stimulus interval of approximately 5–10 s and the paw withdrawal frequency (percent) was determined. Baseline measures were determined for each rat for three consecutive days prior to injection of CFA. Mechanical hyperalgesia was defined as an increase in the paw withdrawal frequency.
# Rats were initially anesthetized by intramuscular injection of ketamine (100 mg/kg) and xylazine ([…]). […] Core body temperature was maintained at 37°C using a feedback-controlled heating pad (Harvard Apparatus, Holliston, MA, USA).
# Recordings were made from cutaneous afferent fibers of the left tibial nerve using a teased-fiber approach. The tibial nerve was dissected from the surrounding tissue and the overlaying skin was sewn to a metal ring to form a pool that was filled with warm mineral oil. The tibial nerve was placed onto a mirror platform for fine dissection with sharpened fine forceps (Fine Science Tools, Foster City, CA, USA). Teased fibers were placed onto a tungsten wire electrode and action potentials were recorded extracellularly. […] Only fibers with clearly discriminated single action potentials were studied. Responses of individual fibers were analyzed off-line using the Spike2 data analysis program (Cambridge Electronic Design, Cambridge, UK).
# Afferent fibers were found by their ongoing spontaneous activity and by mechanically stimulating the plantar surface of the hind paw with the experimenter's finger or von Frey monofilaments. Once a single fiber was identified that was excited by mild pinching but not light touch, its mechanical receptive field was marked on the skin using a felt-tipped pen.
# Conduction velocity was determined by electrically stimulating the skin outside the fiber’s receptive field with pin electrodes (200 μs pulse width at 0.5 Hz) to electrically activate the fiber. The fiber was stimulated at 1.5 times its electrical threshold and the conduction latency was measured from the time of the electrical stimulus artifact to the evoked action potential. Conduction distance was determined by measuring the distance from the fiber's receptive field to the recording electrode. Conduction velocity (m/s) was calculated by dividing conduction distance by conduction latency. Fibers were classified as Aδ-fiber nociceptors if they had conduction velocities between 2.4–25.0 m/s and as C-fiber nociceptors if conduction velocity was < 2.4 m/s.
# Nociceptors were classified functionally according to their responsiveness to mechanical and heat stimulation. Mechanical stimuli used to classify units included light brushing with the tip of a cotton swab, mildly pinching with a pair of forceps, and application of von Frey filaments. Mechanical response thresholds were determined using a series of von Frey monofilaments and defined as the weight (g) required to evoke at least one action potential when applied to the receptive field for 1–2 s. Heat stimuli were delivered using a feedback-controlled Peltier device (Yale Electronics, New Haven, CT) with a contact area of 1 cm^2. […]
# [5] = tested on: Aδ-fiber nociceptors; assay: In vivo teased-fiber recording from tibial nerve after CFA, Aδ-fibers; design: species or system rat; details: i.v. 2.5 mg
# Description: as §1, with “Mechanical hyperalgesia was defined as an increase in the paw withdrawal frequency.” left out
# Recordings were made from cutaneous afferent fibers of the left tibial nerve using a teased-fiber approach. […] Teased fibers were placed onto a tungsten wire electrode and action potentials were recorded extracellularly. […] Responses of individual fibers were analyzed off-line using the Spike2 data analysis program (Cambridge Electronic Design, Cambridge, UK). […]
# [6] = tested on: Nav1.7; design: method as in PMID 21634377; details: extrapolated; cited from earlier work
# [7] = 30 minutes after i.v. injection
# [8] = 60 minutes after i.v. injection
smiles,measurement,setting,value
"CC(=O)Nc1cccc(Nc2ncnc(N3CCC(OCc4ccc(OC(F)(F)F)cc4)CC3)n2)c1C [Compound 52, N-(2-methyl-3-((4-(4-((4-(trifluoromethoxy)benzyl)oxy)-1-piperidinyl)-1,3,5-triazin-2-yl)amino)phenyl)acetamide]",Kp,"[1]; brain and plasma, rat, ratio of concentrations measured following the formalin test",0.3
same,Effective [plasma],[1]; mean terminal plasma concentration at the lowest effective dose in the rat formalin test,1.93 µM
same,Decrease in basic movement,[2]; 3 mg/kg p.o.,3%
same,Decrease in basic movement,"[2]; 10 mg/kg p.o., negative value = increase",11%
same,Decrease in basic movement,[2]; 30 mg/kg p.o.,54%
same,Average reversal of thermal hyperalgesia compared to baseline,[3]; 10 mg/kg p.o.,40%
same,Average reversal of thermal hyperalgesia compared to baseline,[3]; 30 mg/kg p.o.,53%
same,"Mean cumulative number of action potentials evoked by all heat stimuli, C-fibers",[4]; [7],19.2 ± 3.6
same,"Mean number of action potentials evoked by a suprathreshold mechanical stimulus (250 mN), C-fibers",[4]; [7],19.9 ± 5.4
same,Mechanical response threshold of C-fiber nociceptors,[4]; [7],60.4 ± 9.8 mN
same,Heat response threshold of C-fiber nociceptors,[4]; [7],47.0 °C
same,"Number of action potentials evoked by heat stimuli, C-fibers","[4]; 30 minutes after i.v. injection, 48°C and 50°C reduced",reduced the number of action potentials evoked by heat stimuli
same,"Mean number of action potentials evoked by a suprathreshold mechanical stimulus (250 mN), C-fibers",[4]; [8],11.6 ± 3.2
same,Mechanical response threshold of C-fiber nociceptors,[4]; [8],60.1 ±9.1 mN
same,"Mean cumulative number of action potentials evoked by all heat stimuli, C-fibers",[4]; before injection,39.2 ± 6.5
same,"Mean number of action potentials evoked by a suprathreshold mechanical stimulus (250 mN), C-fibers","[4]; before injection, n = 8",28.9 ± 6.2
same,Heat response threshold of C-fiber nociceptors,[4]; before injection,45.0 °C
same,Mechanical response threshold of C-fiber nociceptors,"[4]; before injection, n = 11",44.5 ± 7.5 mN
same,Time after beginning the injection at which the rate of ongoing spontaneous activity was significantly decreased,"[4]; i.v. 2.5 mg over 15 min, remained decreased until 26 minutes",≤ 12 min
same,"Spontaneous firing of C-fiber nociceptors, after compound","[4]; one day after CFA, after i.v. 2.5 mg (approximately 8 mg/kg)",~0.2 Hz
same,"Spontaneous firing of C-fiber nociceptors, before compound","[4]; one day after CFA, before i.v. injection",approximately 0.7 Hz
same,Mechanical response thresholds of Aδ-fiber nociceptors,[5],Neither vehicle nor compound 52 altered
same,Rate of ongoing spontaneous activity of Aδ-fiber nociceptors,[5],did not reduce the rate of ongoing spontaneous activity
same,Preference for inactivated versus non-inactivated Nav1.7,[6],100 fold
